{
  "source": "PubChem BioAssay (NCI)",
  "assay_in_all_cases": "inhibition of tumour cell growth, NCI panel, 48 h",
  "key": {"NCI-H522 lung": {"test_system": "NCI-H522 lung"}, "RXF 393 renal": {"test_system": "RXF 393 renal"}, "SNB-75 CNS": {"test_system": "SNB-75 CNS"}, "OVCAR-5 ovarian": {"test_system": "OVCAR-5 ovarian"}, "KM12 colon": {"test_system": "KM12 colon"}, "SK-OV-3 ovarian": {"test_system": "SK-OV-3 ovarian"}, "M14 melanoma": {"test_system": "M14 melanoma"}, "ACHN renal": {"test_system": "ACHN renal"}, "SF-539 CNS": {"test_system": "SF-539 CNS"}, "IGROV1 ovarian": {"test_system": "IGROV1 ovarian"}, "SF-268 CNS": {"test_system": "SF-268 CNS"}, "SK-MEL-5 melanoma": {"test_system": "SK-MEL-5 melanoma"}, "MOLT-4 leukemia": {"test_system": "MOLT-4 leukemia"}, "SR leukemia": {"test_system": "SR leukemia"}, "CAKI-1 renal": {"test_system": "CAKI-1 renal"}, "CCRF-CEM leukemia": {"test_system": "CCRF-CEM leukemia"}, "PC-3 prostate": {"test_system": "PC-3 prostate"}, "MCF7 breast": {"test_system": "MCF7 breast"}, "RPMI-8226 leukemia": {"test_system": "RPMI-8226 leukemia"}, "MDA-MB-231 breast": {"test_system": "MDA-MB-231 breast"}, "OVCAR-8 ovarian": {"test_system": "OVCAR-8 ovarian"}, "OVCAR-4 ovarian": {"test_system": "OVCAR-4 ovarian"}, "T-47D breast": {"test_system": "T-47D breast"}, "NCI-H23 lung": {"test_system": "NCI-H23 lung"}, "SNB-19 CNS": {"test_system": "SNB-19 CNS"}, "TK-10 renal": {"test_system": "TK-10 renal"}, "MDA-N": {"test_system": "MDA-N"}, "786-0 renal": {"test_system": "786-0 renal"}, "HCT-116 colon": {"test_system": "HCT-116 colon"}, "LOX IMVI melanoma": {"test_system": "LOX IMVI melanoma"}, "MDA-MB-435": {"test_system": "MDA-MB-435"}, "COLO 205 colon": {"test_system": "COLO 205 colon"}, "UO-31 renal": {"test_system": "UO-31 renal"}, "UACC-257 melanoma": {"test_system": "UACC-257 melanoma"}, "EKVX NSCLC": {"test_system": "EKVX NSCLC"}, "SK-MEL-2 melanoma": {"test_system": "SK-MEL-2 melanoma"}, "OVCAR-3 ovarian": {"test_system": "OVCAR-3 ovarian"}, "U251 CNS": {"test_system": "U251 CNS"}, "SN12C renal": {"test_system": "SN12C renal"}, "HL-60(TB) leukemia": {"test_system": "HL-60(TB) leukemia"}, "NCI-H460 lung": {"test_system": "NCI-H460 lung"}, "A498 renal": {"test_system": "A498 renal"}, "BT-549 breast": {"test_system": "BT-549 breast"}, "NCI-H226 lung": {"test_system": "NCI-H226 lung"}, "DU-145 prostate": {"test_system": "DU-145 prostate"}, "A549 NSCLC": {"test_system": "A549 NSCLC"}, "SF-295 CNS": {"test_system": "SF-295 CNS"}, "HOP-92 NSCLC": {"test_system": "HOP-92 NSCLC"}, "NCI/ADR-RES ovarian": {"test_system": "NCI/ADR-RES ovarian"}, "HCT-15 colon": {"test_system": "HCT-15 colon"}, "MALME-3M melanoma": {"test_system": "MALME-3M melanoma"}, "HOP-62 NSCLC": {"test_system": "HOP-62 NSCLC"}, "HS 578T breast": {"test_system": "HS 578T breast"}, "K-562 leukemia": {"test_system": "K-562 leukemia"}, "SW-620 colon": {"test_system": "SW-620 colon"}, "SK-MEL-28 melanoma": {"test_system": "SK-MEL-28 melanoma"}, "HT29 colon": {"test_system": "HT29 colon"}, "UACC-62 melanoma": {"test_system": "UACC-62 melanoma"}},
  "note": "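These data come from cells grown in 96-well plates and exposed to compound for 48 hours at five concentrations. The concentration for full growth arrest is given as TGI.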",
  "data": [
    {"smiles": "N#CC(C#N)=Cc1c[nH]c(=O)[nH]c1=O", "values": [
      {"measurement": "TGI", "setting": "NCI-H522 lung", "value": "> 100", "unit": "µM"},
      {"measurement": "TGI", "setting": "RXF 393 renal", "value": "> 100", "unit": "µM"},
      {"measurement": "TGI", "setting": "SNB-75 CNS", "value": "> 100", "unit": "µM"},
      {"measurement": "TGI", "setting": "OVCAR-5 ovarian", "value": "> 100", "unit": "µM"},
      {"measurement": "TGI", "setting": "KM12 colon", "value": "> 100", "unit": "µM"},
      {"measurement": "TGI", "setting": "SK-OV-3 ovarian", "value": "> 100", "unit": "µM"},
      {"measurement": "TGI", "setting": "M14 melanoma", "value": "> 100", "unit": "µM"},
      {"measurement": "TGI", "setting": "ACHN renal", "value": "> 100", "unit": "µM"},
      {"measurement": "TGI", "setting": "SF-539 CNS", "value": "> 100", "unit": "µM"},
      {"measurement": "TGI", "setting": "IGROV1 ovarian", "value": "> 100", "unit": "µM"},
      {"measurement": "TGI", "setting": "SF-268 CNS", "value": "> 100", "unit": "µM"},
      {"measurement": "TGI", "setting": "SK-MEL-5 melanoma", "value": "> 100", "unit": "µM"},
      {"measurement": "TGI", "setting": "MOLT-4 leukemia", "value": "> 100", "unit": "µM"},
      {"measurement": "TGI", "setting": "SR leukemia", "value": "> 100", "unit": "µM"},
      {"measurement": "TGI", "setting": "CAKI-1 renal", "value": "> 100", "unit": "µM"},
      {"measurement": "TGI", "setting": "CCRF-CEM leukemia", "value": 63.9, "unit": "µM"},
      {"measurement": "TGI", "setting": "PC-3 prostate", "value": "> 100", "unit": "µM"},
      {"measurement": "TGI", "setting": "MCF7 breast", "value": "> 100", "unit": "µM"},
      {"measurement": "TGI", "setting": "RPMI-8226 leukemia", "value": "> 100", "unit": "µM"},
      {"measurement": "TGI", "setting": "MDA-MB-231 breast", "value": "> 100", "unit": "µM"},
      {"measurement": "TGI", "setting": "OVCAR-8 ovarian", "value": "> 100", "unit": "µM"},
      {"measurement": "TGI", "setting": "OVCAR-4 ovarian", "value": "> 100", "unit": "µM"},
      {"measurement": "TGI", "setting": "T-47D breast", "value": "> 100", "unit": "µM"},
      {"measurement": "TGI", "setting": "NCI-H23 lung", "value": "> 100", "unit": "µM"},
      {"measurement": "TGI", "setting": "SNB-19 CNS", "value": "> 100", "unit": "µM"},
      {"measurement": "TGI", "setting": "TK-10 renal", "value": "> 100", "unit": "µM"},
      {"measurement": "TGI", "setting": "MDA-N", "value": "> 100", "unit": "µM"},
      {"measurement": "TGI", "setting": "786-0 renal", "value": "> 100", "unit": "µM"},
      {"measurement": "TGI", "setting": "HCT-116 colon", "value": "> 100", "unit": "µM"},
      {"measurement": "TGI", "setting": "LOX IMVI melanoma", "value": "> 100", "unit": "µM"},
      {"measurement": "TGI", "setting": "MDA-MB-435", "value": "> 100", "unit": "µM"},
      {"measurement": "TGI", "setting": "COLO 205 colon", "value": "> 100", "unit": "µM"},
      {"measurement": "TGI", "setting": "UO-31 renal", "value": "> 100", "unit": "µM"},
      {"measurement": "TGI", "setting": "UACC-257 melanoma", "value": "> 100", "unit": "µM"},
      {"measurement": "TGI", "setting": "EKVX NSCLC", "value": "> 100", "unit": "µM"},
      {"measurement": "TGI", "setting": "SK-MEL-2 melanoma", "value": "> 100", "unit": "µM"},
      {"measurement": "TGI", "setting": "OVCAR-3 ovarian", "value": "> 100", "unit": "µM"},
      {"measurement": "TGI", "setting": "U251 CNS", "value": "> 100", "unit": "µM"},
      {"measurement": "TGI", "setting": "SN12C renal", "value": "> 100", "unit": "µM"},
      {"measurement": "TGI", "setting": "HL-60(TB) leukemia", "value": "> 100", "unit": "µM"},
      {"measurement": "TGI", "setting": "NCI-H460 lung", "value": "> 100", "unit": "µM"},
      {"measurement": "TGI", "setting": "A498 renal", "value": "> 100", "unit": "µM"},
      {"measurement": "TGI", "setting": "BT-549 breast", "value": "> 100", "unit": "µM"},
      {"measurement": "TGI", "setting": "NCI-H226 lung", "value": "> 100", "unit": "µM"},
      {"measurement": "TGI", "setting": "DU-145 prostate", "value": "> 100", "unit": "µM"},
      {"measurement": "TGI", "setting": "A549 NSCLC", "value": "> 100", "unit": "µM"},
      {"measurement": "TGI", "setting": "SF-295 CNS", "value": "> 100", "unit": "µM"},
      {"measurement": "TGI", "setting": "HOP-92 NSCLC", "value": "> 100", "unit": "µM"},
      {"measurement": "TGI", "setting": "NCI/ADR-RES ovarian", "value": "> 100", "unit": "µM"},
      {"measurement": "TGI", "setting": "HCT-15 colon", "value": "> 100", "unit": "µM"},
      {"measurement": "TGI", "setting": "MALME-3M melanoma", "value": "> 100", "unit": "µM"},
      {"measurement": "TGI", "setting": "HOP-62 NSCLC", "value": "> 100", "unit": "µM"},
      {"measurement": "TGI", "setting": "HS 578T breast", "value": "> 100", "unit": "µM"},
      {"measurement": "TGI", "setting": "K-562 leukemia", "value": "> 100", "unit": "µM"},
      {"measurement": "TGI", "setting": "SW-620 colon", "value": "> 100", "unit": "µM"},
      {"measurement": "TGI", "setting": "SK-MEL-28 melanoma", "value": "> 100", "unit": "µM"},
      {"measurement": "TGI", "setting": "HT29 colon", "value": "> 100", "unit": "µM"},
      {"measurement": "TGI", "setting": "UACC-62 melanoma", "value": "> 100", "unit": "µM"}
    ]}
  ]
}
